In PubChem BioAssay (NCI) one finds GI50 and TGI data, which are given here for 9 compounds.

Common to all, as to test: inhibition of tumour cell growth, NCI panel, 48 h
Assay [1] relates to HL-60(TB) leukemia.
Assay [2] deals with NCI-H522 lung.
Assay [3] deals with LOX IMVI melanoma.
In assay [4] the test system is SK-MEL-5 melanoma.
Assay [5] has as its system EKVX NSCLC.
Assay [6] relates to SF-295 CNS.
The test system of assay [7] is OVCAR-5 ovarian.
Assay [8] has as its system COLO 205 colon.
In assay [9] the test system is 786-0 renal.
In assay [10] the test system is SK-MEL-28 melanoma.

Molecules are shown by their SMILES. “And” between values parts separate entries of the source, which are not always exact repeats. Equal entries are not always repeated.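 All cell lines were grown in 96-well plates and treated with compound for 48 hours. GI50 is the concentration that inhibits growth by half. At the TGI there is no net growth.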

`Cc1cc2c3c(nc4ccccc42)C(=O)c2cccnc2-c3n1`: the GI50 in assay [1] is 0.135 µM; in assay [2], 0.04 µM; in assay [3], 0.144 µM; in assay [4] it was 0.0808 µM; in [5], 0.707 µM; in [6], 0.541 µM. Also, the GI50 is 1.09 µM in [7], 1.13 µM in assay [8], 0.148 µM in assay [9] and 0.976 µM in assay [10]. Moreover, the TGI is 1.36 µM in assay [1]; 0.315 µM in assay [2]; 0.524 µM in [3]; 0.354 µM in assay [4]; 2.49 µM in [5]; 1.91 µM in [6]. In addition, the TGI was determined as 2.33 µM in [7], 2.45 µM in assay [8], 0.823 µM in assay [9] and 2.68 µM in assay [10].
For `CC[C@@]1(O)C(=O)OCc2c1cc1n(c2=O)Cc2cc3cc(O)ccc3nc2-1`, the GI50 is 0.0187 µM in [1]; < 0.0075 µM in assay [2]; 0.0247 µM and 0.0167 µM in assay [4]; 0.107 µM and 0.903 µM in assay [5]; 0.0282 µM and 0.029 µM in [6]; 0.122 µM in [7]. Also, the GI50 in assay [8] was 0.573 µM; in [10], 0.166 µM and 0.264 µM. For the same compound, the TGI was 0.135 µM in assay [1]; 0.103 µM and 0.447 µM in assay [2]; 1.17 µM and 0.224 µM in assay [3]; 0.111 µM and 0.0959 µM in assay [4]; 0.799 µM and 3.91 µM in assay [6]; 2.36 µM and 2.56 µM in assay [8]. The TGI is 0.9 µM in assay [9]; 10 µM and > 38.9 µM in [10].
Consider `COC(=O)COc1ccccc1/C=C1/N=C(c2ccccc2)N(c2c(C)n(C)n(-c3ccccc3)c2=O)C1=O`, for which the GI50 in assay [1] was > 100 µM; in assay [2], 20 µM; in assay [3], 76.5 µM; in assay [4], > 100 µM; in assay [5] it was > 100 µM; in assay [6] it was > 100 µM. Besides, the GI50 in assay [7], in assay [8], in assay [9] and in assay [10] was > 100 µM in each case. The TGI in [1] is > 100 µM; in assay [2], 48 µM; in [3], > 100 µM; in assay [4], > 100 µM; in assay [5] it was > 100 µM; in assay [6] it was > 100 µM. For the same compound, the TGI in assay [7], in assay [8], in assay [9] and in [10] was > 100 µM each time.
Consider `C=C(CC)C(=O)c1ccc(OCC(=O)O)c(Cl)c1Cl`, for which the TGI was > 85 µM in assay [1]; 29.6 µM in assay [2]; 29.7 µM in assay [3]; > 55.7 µM in [4]; 38.3 µM in assay [5]; > 100 µM in assay [6]. Also, the TGI is > 62.6 µM in assay [7], 33.1 µM in [8], 19.7 µM in assay [9] and 33.6 µM in assay [10].
For the compound `CC1(C)CCC2(C(=O)O)C(O)CC3(C)C(=CCC4C5(C)CCC(OC6OCC(O)C(O)C6OC6OCC(O)C(O)C6OC6OCC(O)C(OC7OC(CO)C(O)C(O)C7O)C6O)C(C)(C)C5CCC43C)C2C1` (stereo unspecified), the TGI in assay [1] is 48.3 µM; in [2] it was 49.4 µM; in [3], > 100 µM; in assay [4] it was > 100 µM; in assay [5], > 100 µM; in [6], 42.8 µM. In addition, the TGI in assay [7], in [8], in [9] and in assay [10] was > 100 µM each time.
Regarding `C/C(=N\O)C1CC(CC(=O)O)C1(C)C` (stereo unspecified), the TGI in assay [1], in assay [2], in assay [3], in [4], in [5] and in assay [6] was > 100 µM throughout. For the same compound, the TGI in assay [7], in assay [8], in [9] and in assay [10] was > 100 µM throughout.
Regarding `CS(=O)(=O)ON1C(=O)c2ccc(N)cc2C1=O`, the TGI was 46.5 µM in assay [1]; 43.2 µM in [2]; > 100 µM in assay [3]; > 100 µM in [4]; > 100 µM in assay [5]; > 100 µM in [6]. Further, the TGI in assay [7] is > 100 µM; in [8], > 100 µM; in [9], > 100 µM; in assay [10], > 88.6 µM.
As to `O=C(O)c1cc(-c2ccc(-c3ccccc3)cc2)nc2cc3ccccc3cc12`, the TGI in assay [1], in assay [2], in [3], in assay [4], in assay [5] and in assay [6] was > 100 µM each time. Also, the TGI is > 100 µM in [7], > 100 µM in assay [8], 67.6 µM in assay [9] and > 100 µM in assay [10].
As for `CC(=O)CCC[C@@H](C)[C@@H]1O[C@H]([C@@]2(C)CCC(=O)O2)CC2[C@H]1OC(=O)C21CC1` (stereo partly specified), the GI50 in [1] is > 100 µM; in [2], > 100 µM; in assay [3], 77.1 µM; in [4] it was 21.7 µM; in assay [5], 8.03 µM; in assay [6] it was 61.6 µM. In addition, the GI50 in [7], in assay [8], in [9] and in assay [10] was > 100 µM throughout. In addition, the TGI in assay [1] was > 100 µM; in assay [2] it was > 100 µM; in assay [3] it was > 100 µM; in [4], 92.4 µM; in assay [5], 49.5 µM; in [6], > 100 µM. Also, the TGI in [7], in assay [8], in assay [9] and in [10] was > 100 µM in each case.
